Data published in PMC12589708, “Structural determinants for red‐shifted absorption in higher‐plants Photosystem I” (The New Phytologist, 2025).

Experiments:
Test in all cases: cryo-EM structure
Type in all cases: binding
Lhca1‐Lhca4 = target: T1, Lhca1‐Lhca4 (Arabidopsis thaliana, UniProt P27521+Q01667); settings: PSI-LHCI supercomplex, 3.13 A; Lhca1/Lhca4 interface near Chl a615, hydrogen bond to Lhca1 Ser210
T1 construct: heterodimer within native PSI-LHCI supercomplex purified from leaves; ligand at the subunit interface
T1 sequence (Q01667 36-241): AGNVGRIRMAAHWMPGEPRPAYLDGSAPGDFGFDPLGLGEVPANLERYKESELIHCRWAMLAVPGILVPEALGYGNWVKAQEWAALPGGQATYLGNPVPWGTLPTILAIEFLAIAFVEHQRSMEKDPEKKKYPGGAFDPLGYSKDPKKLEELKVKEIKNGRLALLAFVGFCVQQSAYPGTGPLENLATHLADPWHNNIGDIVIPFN
T1 sequence (P27521 53-251): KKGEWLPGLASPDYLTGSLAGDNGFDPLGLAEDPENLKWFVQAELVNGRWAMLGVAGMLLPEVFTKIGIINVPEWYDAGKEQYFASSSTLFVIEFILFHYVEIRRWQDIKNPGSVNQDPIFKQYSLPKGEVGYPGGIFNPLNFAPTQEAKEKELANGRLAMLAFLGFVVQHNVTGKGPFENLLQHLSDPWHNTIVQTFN

Lhca2 = target: T2, Lhca2 (Arabidopsis thaliana, UniProt Q9SYW8); settings: PSI-LHCI supercomplex, 3.13 A; site L2
T2 construct: native LHCI antenna subunit within PSI-LHCI supercomplex purified from leaves (beta-DM, sucrose gradient)
T2 sequence (Q9SYW8 44-257): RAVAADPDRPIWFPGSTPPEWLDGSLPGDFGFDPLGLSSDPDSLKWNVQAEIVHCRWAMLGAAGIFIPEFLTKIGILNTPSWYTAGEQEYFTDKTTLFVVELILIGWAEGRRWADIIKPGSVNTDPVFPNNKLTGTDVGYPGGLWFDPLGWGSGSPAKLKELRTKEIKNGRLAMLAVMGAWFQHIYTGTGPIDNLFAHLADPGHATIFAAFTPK

Lhca1 = target: T3, Lhca1 (Arabidopsis thaliana, UniProt Q01667); settings: PSI-LHCI supercomplex, 3.13 A; site L2
T3 construct: native LHCI antenna subunit within PSI-LHCI supercomplex purified from leaves (beta-DM, sucrose gradient)
T3 sequence (Q01667 36-241): T1 sequence (Q01667 36-241)

| Structure (SMILES) | cryo-EM structure (Lhca1‐Lhca4) | cryo-EM structure (Lhca2) | cryo-EM structure (Lhca1) |
| --- | --- | --- | --- |
| CC1=C[C@H](O)CC(C)(C)[C@H]1/C=C/C(C)=C/C=C/C(C)=C/C=C/C=C(C)/C=C/C=C(C)/C=C/C1=C(C)C[C@@H](O)CC1(C)C [lutein] | The Lut was situated at the interface between Lhca1 and Lhca4 | – | – |
| CC(/C=C/C=C(C)/C=C/[C@@]12O[C@]1(C)C[C@@H](O)CC2(C)C)=C\C=C\C=C(C)\C=C\C=C(C)\C=C\[C@@]12O[C@]1(C)C[C@@H](O)CC2(C)C [violaxanthin] | – | significantly higher for Lhca3 and Lhca4 than for Lhca1 and Lhca2 | Chl a603–Vio L2 coupling were significantly higher for Lhca3 and Lhca4 than for Lhca1 |
